Read-outs that look alike come from different tables or passages of the source.

One may read the Km as the concentration of substrate that gives half-maximal velocity. As a reminder, the IC50 is the concentration needed to halve the response being measured. A high value points to lower potency. What is called mortality is the share of the test organisms that died. Low values mean more survivors, high ones fewer survivors.

One data set relates to CYP1A2 Glu^318Asp. Also noted: method as in PMID 7910007. The note with it: human CYP1A2 ref [37]; cited from earlier work.
Data set [1] has as its target T1, UGANCYP6P9b (Anopheles funestus, UniProt A0A0S1S7Y0). The data set is described as follows: Fluorogenic probe O-dealkylation, initial testing. It is filed as biochemical. Conditions: UGANCYP6P9b vs UGANCYP6P9a; 1μM probe. As for the experimental part:
Four probes: 7-ethoxyresurofin (7-ER), 7-ethoxy-4-trifluoromethylcoumarin (7-EFC), 7-methoxy-4-trifluoromethylcoumarin (MFC) and diethoxyfluorescein (DEF) were initially tested with the various recombinant CYP6P9a and CYP6P9b proteins. In a total volume of 225μl containing ~10pmol P450, buffered with 50mM potassium phosphate buffer (KPi at pH 7.4 with 5mM MgCl2), 1μM probe substrate was added. Membranes were activated for 5 minutes at 37°C in fluorescence spectrophotometer Infinite M200 (TECAN) before 25μl NADPH regeneration buffer (1mM glucose-6-phosphate (G6P), 0.25mM MgCl2, 0.1mM NADP and 1U/ml glucose-6-phosphate dehydrogenase (G6PDH) prepared in KPi pH 7.4) was added. All reactions were conducted in three replicates with negative control (–NADPH) devoid of the regeneration buffer. […]. Results were analysed using Magellan v6.2 software.

Another data set concerns CYP6Z8. Also noted: method as in ref [8] (S1 Text). The note with it: cited from earlier work; for Kcat: Ae. aegypti CYP6Z8 ref [8] (S1 Text).
Another data set concerns CYP6Z2. Conditions: cited from earlier work.
Data set [2] concerns CYP6P9a/CYP6P9b (MALCYP6P9a, BENCYP6P9a, MALCYP6P9b, UGANCYP6P9b). Nature of the data set: in vitro. Conditions: Anopheles funestus, pH 7.4, inhibition of DEF dealkylation, DDT value for all proteins excepting UGANCYP6P9b. It is filed as biochemical, Anopheles funestus. The protocol: (§1) To further assess differences in the degree of binding of the various recombinant proteins to insecticides from different classes, inhibition assay was conducted with DEF and ten insecticides (inhibitors). The potent P450s inhibitor miconazole was utilised as a positive control inhibitor. IC50 determination was conducted as described in previous studies. […]. The 96 well-plate was pre-incubated for 5 minutes at 37°C and then 25μl regeneration buffer (7.8mg glucose-6-phosphate (G6P), 0.25mM MgCl2, 1.7mg NADP, 6U/ml glucose-6-phosphate dehydrogenase and 2% w/v NaHCO3) incorporated. Fluorescence was monitored for 21 cycles at interval of 1 minute with shaking at every step. Results were analysed using Magellan v6.2 software and inhibition at each inhibitor concentration and incubation time calculated as residual control activity towards DEF.

Data set [3] has as its target T2, FANGCYP6P9a (Anopheles funestus, UniProt K7Z0P3). The data set is described as follows: Pyrethroid depletion (metabolism) assay with recombinant enzyme. Conditions: 20μM insecticide, 1 hour, vs -NADPH. Format: biochemical.
Experimental: (§5) Membrane expressing recombinant CYP6P9a/-b and AgCPR, and reconstituted cytochrome b5 were added to the side of the tube and pre-incubated for 5 minutes at 30°C, with shaking at 1,200 rpm to activate the membrane. 20μM of test insecticide was then added into the final volume of 0.2ml (~2.5% v/v methanol), and reaction started by vortexing at 1,200 rpm and 30°C for 1 hour. Reactions were quenched with 0.1ml ice-cold methanol and incubated for 5 more minutes. Tubes were then centrifuged at 16,000 rpm and 4°C for 15 minutes, and 150μl of supernatant transferred into HPLC vials for analysis. Reactions were carried out in triplicates with experimental samples (+NADPH) and negative controls (-NADPH). 100μl of sample was loaded onto an isocratic mobile phase (90:10 v/v methanol to water) with a flow rate of 1ml/min, monitoring wavelength of 226nm and peaks separated with a 250mm C18 column (Acclaim 120, Dionex) on Agilent 1260 Infinity at 23°C. Enzyme activity was calculated as percentage depletion (the difference in the amount of insecticide(s) remaining in the +NADPH tubes compared with the–NADPH) and a t-test used for statistical analysis.
Another data set has as its target UGANCYP6P9a (Anopheles funestus, UniProt B5AII6). The data set is described as above. The note with it: 20μM insecticide, 1 hour, vs -NADPH. Format: biochemical.
The target of data set [4] is T3, FANGCYP6P9b (Anopheles funestus, UniProt A0A0S1RZ61). The data set is described as above. Format: biochemical. The note with it: 20μM insecticide, 1 hour, vs -NADPH.
Experimental: (§6) To establish whether allelic variation in CYP6P9a and CYP6P9b impact their metabolic activities toward insecticides, pyrethroids were screened with the recombinant enzymes from these genes. […] Membrane expressing recombinant CYP6P9a/-b and AgCPR, and reconstituted cytochrome b5 were added to the side of the tube and pre-incubated for 5 minutes at 30°C, with shaking at 1,200 rpm to activate the membrane. 20μM of test insecticide was then added into the final volume of 0.2ml (~2.5% v/v methanol), and reaction started by vortexing at 1,200 rpm and 30°C for 1 hour. Reactions were quenched with 0.1ml ice-cold methanol and incubated for 5 more minutes. Tubes were then centrifuged at 16,000 rpm and 4°C for 15 minutes, and 150μl of supernatant transferred into HPLC vials for analysis. Reactions were carried out in triplicates with experimental samples (+NADPH) and negative controls (-NADPH). 100μl of sample was loaded onto an isocratic mobile phase (90:10 v/v methanol to water) with a flow rate of 1ml/min, monitoring wavelength of 226nm and peaks separated with a 250mm C18 column (Acclaim 120, Dionex) on Agilent 1260 Infinity at 23°C. Enzyme activity was calculated as percentage depletion (the difference in the amount of insecticide(s) remaining in the +NADPH tubes compared with the–NADPH) and a t-test used for statistical analysis.
The target of data set [5] is T4, MALCYP6P9b (Anopheles funestus, UniProt B5AII7). The data set is described as above. Format: biochemical. The note with it: 20μM insecticide, 1 hour, vs -NADPH.
The target in data set [6] is T1, UGANCYP6P9b. The description is as above. Conditions: 20μM insecticide, 1 hour, vs -NADPH. Format: biochemical.
A further data set addresses MALCYP6P9a (Anopheles funestus, UniProt B5AII6). Described as above. It is filed as biochemical. The note with it: 20μM insecticide, 1 hour, vs -NADPH.
For data set [7], the target named is T5, BENCYP6P9a (Anopheles funestus, UniProt A0A0S1RZ75). Described as above. Format: biochemical. The note with it: 20μM insecticide, 1 hour, vs -NADPH.
Experimental: as §5
In data set [8] the target is T6, BENCYP6P9b (Anopheles funestus, UniProt A0A0S1S7Y0). The data set is described as above. It is filed as biochemical. The note with it: 20μM insecticide, 1 hour, vs -NADPH.
Experimental: as §6
The target of data set [9] is T1, UGANCYP6P9b. Nature of the data set: Inhibition of DEF dealkylation by insecticides (IC50). It is filed as biochemical. The note with it: compared with averagely 10μM for the other proteins. As for the experimental part: as §1
The subject of the next data set is CYP6P9a/CYP6P9b. Nature of the data set: in vitro. Format: biochemical, Anopheles funestus. Conditions: inhibition of DEF dealkylation; MALCYP6P9a, BENCYP6P9a, MALCYP6P9b, UGANCYP6P9b; DDT value for all proteins excepting UGANCYP6P9b. As for the experimental part:
as §1

Data set [10] concerns the target T3, FANGCYP6P9b. As for the experimental part: (§2) Reactions were performed in triplicates both for +NADPH (experimental tubes) and–NADPH (negative control). K m and V max were established from the plot of substrate concentrations against the initial velocities and fitting of the data to the Michaelis-Menten module using the least squares non-linear regression, as described in the GraphPad Prism 6.03 Software (GraphPad Inc., La Jolla, CA, USA).

For data set [11], the target named is T2, FANGCYP6P9a. The protocol:
as §2

In data set [12] the target is T6, BENCYP6P9b. Nature of the data set: Steady-state kinetics of pyrethroid metabolism. It is filed as biochemical. As for the experimental part: as §2
Data set [13] has as its target T5, BENCYP6P9a. The data set is described as follows: Steady-state kinetics of pyrethroid metabolism. Format: biochemical. The protocol:
as §2

Data set [14] concerns the target T1, UGANCYP6P9b. The data set is described as follows: Steady-state kinetics of pyrethroid metabolism. It is filed as biochemical. As for the experimental part: as §2
The target in data set [15] is T4, MALCYP6P9b. The data set is described as follows: Steady-state kinetics of pyrethroid metabolism. Format: biochemical. The protocol:
as §2

A further data set deals with CYP6M2. Also noted: method as in ref [5] (S1 Text). The note with it: An. gambiae CYP6M2 ref [5] (S1 Text); cited from earlier work.
The subject of data set [16] is transgenic flies over-expressing MALCYP6P9b. The note with it: 0.15% deltamethrin paper. As for the experimental part:
(§3) Primers used for this PCR are given in S8 Table. PCR conditions, cloning techniques, construction of transgenic flies and expression of candidate genes was conducted as described in previous studies, with more details provided in S1 Text. For control group, flies with the same background as the UAS transgenic lines but devoid of the UAS construct with the candidate gene were crossed with the driver Actin5C-GAL4 line to generate Actin5C-GAL4-null flies.
(§4) These papers were then rolled and introduced into 45 cc plastic vials. The vials were then plugged with cotton wool soaked in 5% sucrose. 20–25 (2–4 days old, post-eclosion F1 females) were selected for the bioassays and introduced into the vials. Mortality plus knockdown was scored after 1 hr, 2 hrs, 3 hrs, 6 hrs, 12 hrs and 24 hrs post-exposure to the discriminating dose of the insecticides.

Data set [17] relates to transgenic flies over-expressing FANGCYP6P9a. The note with it: 0.15% deltamethrin paper, 3 hrs. The protocol: as §3, §4
Data set [18] deals with transgenic flies over-expressing MALCYP6P9a. Conditions: 0.15% deltamethrin paper, 3 hrs. The protocol:
as §3, §4

The subject of data set [19] is transgenic flies over-expressing FANGCYP6P9b. Conditions: 0.15% deltamethrin paper. The protocol: as §3, §4

Experimental for UGANCYP6P9a: as §5

On to `CCOc1ccc2ccc(=O)oc2c1` [7-ethoxycoumarin], for which the “increase of Kcat of O-dealkylation by Glu^318Asp substitution” value with CYP1A2 Glu^318Asp is listed as 13 fold.
`CCOc1ccc2c(C(F)(F)F)cc(=O)oc2c1` [7-EFC, 7-ethoxy-4-trifluoromethylcoumarin]: the “O-dealkylation activity, fold of UGANCYP6P9a” value on UGANCYP6P9b [1] is listed as 17.9 fold.
For `O=c1ccc2nc3ccc(OCc4ccccc4)cc3oc-2c1` [benzyloxyresorufin], the Kcat in the data set with CYP6Z8 is 0.00162 s⁻¹; in the data set with CYP6Z2 (An. gambiae CYP6Z2 ref [7] (S1 Text)) it was ~ 1.5 min^-1. In addition, the Km with CYP6Z8 (Aedes aegypti CYP6Z8-mediated de-benzylation ref [8] (S1 Text)) and in the data set on CYP6Z2 (An. gambiae CYP6Z2-mediated de-benzylation ref [7] (S1 Text)) was roughly 0.13 µM each time.
As for `CNC(=O)Oc1ccccc1OC(C)C` [propoxur], in data set [2], the IC50 is greater than 25 µM.
As for `Cc1c(COC(=O)[C@@H]2[C@H](/C=C(\Cl)C(F)(F)F)C2(C)C)cccc1-c1ccccc1` (racemic) [bifenthrin], the Percentage depletion was 16.6±5.41% on FANGCYP6P9a [3]; 50.31±3.8 % on UGANCYP6P9a; 22.38±5.08% on FANGCYP6P9b [4]; “more than 80%” at MALCYP6P9b [5]; 81.6±0.25 % at MALCYP6P9b [5] (listed as Bifenthrin); 88.8±1.61 % on UGANCYP6P9b [6]. Besides, the figures for the Percentage depletion at MALCYP6P9a, at BENCYP6P9a [7] and on BENCYP6P9b [8] were 60.48±2.65 %, 51.02±0.75 % and 89.19±1.01 %, respectively.
Take `CCOc1ccc2nc3ccc(=O)cc-3oc2c1` [ethoxyresorufin]: in the data set on CYP6Z8, the Kcat is 0.0198 s⁻¹.
In the case of `Clc1ccc(C(c2ccc(Cl)cc2)C(Cl)(Cl)Cl)cc1` [DDT], the IC50 entry against UGANCYP6P9b [9] is “much higher value”; with CYP6P9a/CYP6P9b, roughly 10 µM.
For `CNC(=O)Oc1cccc2c1OC(C)(C)O2` [bendiocarb], in [2], the IC50 was greater than 25 µM.
Regarding `CC1(C)[C@H](C(=O)O[C@H](C#N)c2cccc(Oc3ccccc3)c2)[C@@H]1/C=C(\Cl)C(F)(F)F` (racemic) [λ-cyhalothrin], the Percentage depletion stood at 15.46±4.43% on FANGCYP6P9a [3]; 47.74±1.5% on UGANCYP6P9a; 15.49±3.13% on FANGCYP6P9b [4]; 78.76±1.31 % on UGANCYP6P9b [6]; 75.41±1.72% on MALCYP6P9a; 52.45±1.74 % at BENCYP6P9a [7]. Moreover, the Percentage depletion on BENCYP6P9b [8] came to 49.35±4.41 %.
As to `CC1(C)[C@H](C(=O)O[C@H](C#N)c2cccc(Oc3ccccc3)c2)[C@@H]1C=C(Br)Br` [deltamethrin], the Percentage depletion at FANGCYP6P9a [3] is recorded as 18.11±2.15%; on UGANCYP6P9a it was 57.9±2.74 %; at FANGCYP6P9b [4], 6.2±1.5%; at MALCYP6P9b [5], “more than 80%”; at MALCYP6P9b [5] (listed as Deltamethrin) it was 81.69±2.27 %; at UGANCYP6P9b [6] it was 62.53±4.04 %. The Percentage depletion on MALCYP6P9a is recorded as 68.38±1.83 %; at BENCYP6P9a [7] it was 59.54±5.11 %; at BENCYP6P9b [8], 62.03±1.14 %. The Kcat at FANGCYP6P9b [10] was 0.082 ± 0.0137 s⁻¹; on FANGCYP6P9a [11], 0.0812 ± 0.0343 s⁻¹; at BENCYP6P9b [12], 13.63±5.40^b min^-1; at BENCYP6P9a [13], 8.78±2.62^a min^-1; on UGANCYP6P9b [14], 10.44±4.00^b min^-1; at MALCYP6P9b [15], 12.09±1.44^b min^-1. The figures for the Km on FANGCYP6P9b [10], at MALCYP6P9b [15] and in the data set with CYP6M2 were 19.5 ± 5.53 µM, 9.9 ± 1.65 µM and 2 µM, respectively. Also, the mortality is listed as 1.5% in [16] (1 hr); 7.5% in data set [16] (2 hrs); 12.5% in data set [16] (3 hrs); 16% in data set [16] (6 hrs); 21% in [16] (12 hrs); 41% in [16] (24 hrs). The mortality is 52% in data set [17]; less than 30% in data set [18]; 20% in data set [19] (1 hr); 53% in data set [19] (2 hrs); 62% in [19] (3 hrs); 70% in [19] (6 hrs). In addition, the mortality in [19] (12 hrs) came out at 81%; in [19] (24 hrs) it was 93%.
`CCOc1ccc(C(C)(C)COCc2cccc(Oc3ccccc3)c2)cc1` [etofenprox]: the Percentage depletion at FANGCYP6P9a [3] stood at 7.28±1.53%; at UGANCYP6P9a, 42.55±1.03 %; on FANGCYP6P9b [4] it was 16.88±3.06%; on MALCYP6P9b [5], 71.59±1.42 %; at UGANCYP6P9b [6], 57.91±1.55 %; at MALCYP6P9a, 46.04±1.26 %. In addition, the Percentage depletion on BENCYP6P9a [7] worked out at 41.22±1.54 %; at BENCYP6P9b [8] it was 37.15±4.15 %.
